Data set [1] deals with cloned mammalian (mSlo or hSlo) BK channels. Kind of data set: Increase of cloned BK-mediated outward current in Xenopus oocytes, two-electrode voltage clamp. The format is cell-based. The note with it: 1 μM; at least 5 oocytes; mSlo or hSlo expressed in Xenopus oocytes. A general note: In two-electrode clamp one electrode senses voltage and the other passes current.
The subject of data set [2] is non-BK native currents in the oocytes. Kind of data set: Effect on non-BK native currents (current remaining with IBTX) in oocytes. The note with it: at the tested concentration; IBTX 50 nM.
The test system of the next data set is cortical infarct volume. In words: Focal stroke model: permanent left MCA and CCA occlusion, temporary right CCA occlusion. The note with it: Wistar rat; 10 μg/kg i.v. single bolus two hours after MCA occlusion; measured 24 hours after MCAO. The format is in vivo. As for the experimental part:
To determine the ability of the compounds of the present invention to reduce cell loss resulting from neuronal ischemia, a standard focal cerebral ischemia is induced by permanent occlusion of the left middle cerebral artery (MCA) and common carotid artery (CCA) with one hour occlusion of the right CCA in the Wistar rat. The surgeries are performed using the sub-temporal approach of A. Tamura, et al., J. Cereb. Blood Flow Metab., 1, pp. 53-60, (1981) and its modifications [K. Osborne, et al., J. Neurol Neurosurg. Psychiatry, 50, pp. 402-410 (1987) and S. Menzies, et al., Neurosurgery, 31, pp.100-107, (1992).]
The compound of Example 1 was evaluated in the focal stroke model involving permanent occlusion of the left MCA (MCAO) and CCA (CCAO) and temporary occlusion of the right CCA in the Wistar rat. This procedure results in a reliably large neocortical infarct volume that is measured by means of vital dye exclusion in serial slices through the brain 24 hours after MCAO. In the present test, compounds were administered using an i.v. or i.p. route of administration two hours after occlusion.

The nature of data set [3]: Rapid screen of prodrug hydrolysis and drug release in plasma (HPLC). The format is in vitro ADME. The note with it: fresh rat plasma, 37° C., 10 μg/mL, stock in PEG-400, analysis 5 minutes after incubation. The method, then:
A rapid screen to determine the ability of prodrugs to hydrolyze and release the drug (compound of Example 1) is conducted as follows. A 1 mg/mL stock solution of the prodrug is prepared in distilled water or acetonitrile or PEG-400. Plasma from freshly collected rat or human blood is used in this assay. To 1 mL of plasma at 37° C. was added 10 μL of stock solution of prodrug and mixed gently. Immediately after the mixing, 100 μL of plasma was removed and quenched with 300 μL of acetonitrile (Zero time sample). Samples were also obtained at 30 minutes and quenched immediately. The quenched samples were centrifuged to obtain a clear supernatant for analysis. The stock solution, T=0 and T=30 samples were analyzed by a HPLC assay that separates the drug from the prodrug. Based on the relative peak areas of prodrug and drug in these samples, different prodrugs are characterized as fast, moderate and slow release agents. For example, in this model, the compound of Example 2 was dissolved in PEG-400 at a concentration of 1 mg/mL and incubated at 10 μg/mL in fresh rat plasma at 37° C.

On to `O=c1oc(-c2ccc(C(F)(F)F)cc2)nn1Cc1cc(Cl)ccc1O` [Example 1], for which the “BK current as % of control of IBTX-sensitive current” value in data set [1] was determined as 126%. Besides, the “Effect on non-BK native currents in the oocytes” value in data set [2] is given as “did not effect non-BK native currents”. For the same compound, the “Reduction of cortical infarct volume vs vehicle-treated (water) control” value in the data set with cortical infarct volume is “about 18%”.

Consider `O=C(O)CC(NC(=O)Oc1ccc(Cl)cc1Cn1nc(-c2ccc(C(F)(F)F)cc2)oc1=O)C(=O)O` (stereo not shown) [Example 2, N-[[4-Chloro-2-[[5-[4-(trifluoromethyl)phenyl]-2. 3-dihydro-2-oxo-1,3,4-oxadiazol-3-yl]methyl]phenoxy]carbonyl]aspartic acid], for which, in data set [3], the “Conversion of prodrug to the drug (compound of Example 1) in plasma” value is “conversion of the compound of Example 2 to the compound of Example 1”.
